# Patent publication US20220184222A1, “BICYCLE TOXIN CONJUGATES AND USES THEREOF” (BicycleTx Limited, priority 2019, published 2022)
# Starred links: 1 amine or outer side, 2 acyl side, 3 side chain; linkers in the order of their positions; H or OH if unused. Non-standard residues stand in square brackets, D forms with d. Residues, ends and D or L forms follow the SMILES beside them. *: point of attachment. Dolaproine = CO[C@@H]([C@@H]1CCCN1)[C@@H](C)C(=O)O; Dil = CC[C@H](C)[C@H](NC)[C@@H](CC(=O)O)OC; PABC = O=C(OCc1ccc(N[*:1])cc1)[*:2]; X1 = O=C(CCCC(=O)*)ON1C(=O)CCC1=O; X2 = C[C@@H](N*)[C@@H](O)c1ccccc1; Cit = NC(=O)NCCC[C@H](N)C(=O)O; NMeV = CN[C@H](C(=O)O)C(C)C
# What was measured:
# CTG-2393 = test: Champions TumorGraft NSCLC PDX efficacy, model CTG-2393; assay type: in vivo, Mus musculus
# Experimental: (§1) Mice were implanted subcutaneously into the left flank with tumor fragments from one of the various models. After tumors grew to an average of 150-300 mm^3, mice were treated by IV administration Q7Dx4 (n=2) with vehicle or 3 mg/kg of BT5528. Effects on tumor growth were evaluated by measuring percent tumor growth inhibition (% TGI), and the number of complete responders (CR), partial responders (PR), and tumor-free survivors (TFS). Tolerability was assessed by body weight loss, lethality, and clinical signs of adverse treatment-related side effects. Tumor volumes and body weights were measured twice a week.
# Dosing solutions of BT5528 […] were pre-formulated. These dosing solutions were stored at −80° C. in the dark. On each day of dosing, a frozen aliquot of each test agent was thawed, stored at 2-8° C. and used for dosing.
# The animals used in this study are described below: • Species: Mus musculus • Strain: Athymic Nude-Foxn1^nu (immune-compromised) • Source: Envigo (Indianapolis, Ind., USA) • Number of animals per group: 2 • Age and sex: At least 6-8 weeks of age at start of dosing, female • Weight: At least 18 grams at start of dosing • Acclimation period: 3 days
# Stock mice were implanted with tumor cells from Champions TumorGraft® models CTG-0160, CTG-0170, CTG-0178, CTG-0192, CTG-0363, CTG-0808, CTG-0838, CTG-0848, CTG-1212, CTG-1502, CTG-1535, CTG-2011, CTG-2393, CTG-2539 or CTG-2540. After the tumors reached 1000-1500 mm^3, they were harvested and the tumor fragments (approximately 5×5×5 mm^3) were implanted SC in the left flank of the female study mice. Each animal was implanted with a specific passage lot and documented. Tumor growth was monitored twice a week using digital calipers and the tumor volume (TV) was calculated using the formula (0.52×[length×width^2]). When the TV reached an average volume of 150-300 mm^3, animals were matched by tumor size and assigned into Vehicle Control and treatment groups (n=2/group) and dosing was initiated on Day 0. After the initiation of dosing on Day 0, animals were weighed twice per week using a digital scale and TV was measured twice per week and also on the final day of study. The study was completed when the mean tumor volume of Vehicle Control reached 1500 mm^3 or up to Day 60, whichever occurred first.
# Beginning on Day 0, animals were observed daily and weighed twice weekly using a digital scale; data including individual and mean gram weights, mean percent weight change versus Day 0 (% vD0) were recorded for each group and % vD0 plotted at study completion. […] Treatment resulting in a mean % vD0>20% and/or >10% mortality was considered above the maximum tolerated dose. Maximum mean % vD0 (weight nadir) for each treatment group was reported at study completion.
# Inhibition of tumor growth was determined by calculating the percent TGI (100%×[1−(final MTV−initial MTV of a treated group)/(final MTV−initial MTV of the control group)]). Treatment started on Day 0.
# Additional endpoints used to evaluate efficacy were: the number of complete responders (CR), partial responders (PR), and tumor-free survivors (TFS). PRs were considered exclusive of CRs, as were TFS.
# Statistical analyses of anti-tumor efficacy were performed using one-way ANOVA followed by Dunnett's multiple comparisons test (GraphPad Prism version 8.2.0). Significant p-values=<0.05.
# Animals were dosed according to the schedule on Table 7-1. The study was terminated on Day 28.
# [1] = tested on: 15 low-passage Champions TumorGraft models of human non-small cell lung cancer; test: Panel of 15 NSCLC patient derived tumor xenografts (Champions PDX indication screen), overall; assay type: in vivo, Mus musculus; details: weekly 3 mpk
# Experimental: This study was conducted to evaluate the in vivo antitumor activity of BT5528 as monotherapy in 15 low-passage Champions TumorGraft® models.
# as §1, with “week. […]” for “week.”
# Stock mice were implanted with tumor cells from Champions TumorGraft® models CTG-0160, CTG-0170, CTG-0178, CTG-0192, CTG-0363, CTG-0808, CTG-0838, CTG-0848, CTG-1212, CTG-1502, CTG-1535, CTG-2011, CTG-2393, CTG-2539 or CTG-2540. […] Tumor growth was monitored twice a week using digital calipers and the tumor volume (TV) was calculated using the formula (0.52×[length×width^2]). […] After the initiation of dosing on Day 0, animals were weighed twice per week using a digital scale and TV was measured twice per week and also on the final day of study. […]
# [2] = CTG-2393, 3 mg/kg IV Q7Dx4, Day 0-28
structure (smiles),measurement,setting,value
CC[C@H](C)[C@@H]([C@@H](CC(=O)N1CCC[C@H]1[C@H](OC)[C@@H](C)C(=O)N[C@H](C)[C@@H](O)c1ccccc1)OC)N(C)C(=O)[C@@H](NC(=O)[C@H](C(C)C)N(C)C(=O)OCc1ccc(NC(=O)[C@H](CCCNC(N)=O)NC(=O)[C@@H](NC(=O)CCCC(=O)ON2C(=O)CCC2=O)C(C)C)cc1)C(C)C [BT5528] (X1-V[Cit][PABC][NMeV]V[Dil][Dolaproine]-X2),MTV (mean tumor volume),"CTG-2393; 3 mg/kg IV Q7Dx4, Day 28",158±25 mm^3
same,TGI,"CTG-2393; 3 mg/kg IV Q7Dx4, Day 28",107%
same,# CR (complete responders),CTG-2393; [2],0/0/0
same,# PR (partial responders),CTG-2393; [2],0/0/0
same,# TFS (tumor-free survivors),CTG-2393; [2],0/0/0
same,% TGI,"CTG-2393; CTG-2393, 3 mg/kg IV Q7Dx4, Day 28",107%
same,Day 28 Tumor Volume Mean TV ± SEM,"CTG-2393; CTG-2393, BT5528 3 mg/kg IV Q7Dx4, Day 28, n=2",158 ± 25 mm^3
same,models with tumor growth inhibition of 50% or more,[1],10 out of 15
